In series [1] the test system is L1210. The series is described as follows: Antitumor activity against mouse L1210 cells implanted in CDF1 mouse at 0.2 mg/kg, ip single dose on day 1 relative to control. It is filed as functional. Particulars: route intraperitoneal.
For series [2], the system named is Mus musculus. The series is described as follows: Toxicity in mouse L1210 cells implanted CDF1 mouse assessed as average weight gain at 0.2 mg/kg, ip single dose on day 1. Particulars: in vivo. The arrangement: dose 0.2 mg/kg, route intraperitoneal. It is filed as organism-based.
Series [3] relates to Mus musculus. The experiment in a line: Toxicity in mouse L1210 cells implanted CDF1 mouse assessed as average weight gain at 0.2 mg/kg, ip qd for 1 to 5 days. Particulars: in vivo. Details: dose 0.2 mg/kg, route intraperitoneal. In kind it is organism-based.
Series [4] concerns L1210. The series is described as follows: Antitumor activity against mouse L1210 cells implanted in CDF1 mouse at 0.8 mg/kg, ip single dose on day 1 relative to control. It is filed as functional. Particulars: route intraperitoneal.
For series [5], the system named is L1210. The experiment in a line: Antitumor activity against mouse L1210 cells implanted in CDF1 mouse assessed as median survival time at 3.2 mg/kg, ip single dose on day 1. As to conditions: route intraperitoneal. It is filed as functional.
The subject of series [6] is L1210. The series is described as follows: Antitumor activity against mouse L1210 cells implanted in CDF1 mouse at 25.6 mg/kg, ip single dose on day 1 relative to control. In kind it is functional. Particulars: route intraperitoneal.
Series [7] deals with L1210. The experiment in a line: Antitumor activity against mouse L1210 cells implanted in CDF1 mouse at 6.4 mg/kg, ip single dose on day 1 relative to control. In kind it is functional. As to conditions: route intraperitoneal.
For series [8], the system named is Mus musculus. The experiment in a line: Toxicity in mouse L1210 cells implanted CDF1 mouse assessed as average weight gain at 1.6 mg/kg, ip single dose on day 1. Details: dose 1.6 mg/kg, route intraperitoneal. It is filed as organism-based. As to conditions: in vivo.
Series [9] relates to L1210. The experiment in a line: Antitumor activity against mouse L1210 cells implanted in CDF1 mouse assessed as median survival time at 0.4 mg/kg, ip qd for 1 to 5 days. As to conditions: route intraperitoneal. It is filed as functional.
Series [10] deals with Mus musculus. The series is described as follows: Toxicity in mouse L1210 cells implanted CDF1 mouse assessed as average weight gain at 0.8 mg/kg, ip qd for 1 to 5 days. In kind it is organism-based. Particulars: in vivo. The arrangement: dose 0.8 mg/kg, route intraperitoneal.
The test system of series [11] is Mus musculus. The series is described as follows: Toxicity in mouse L1210 cells implanted CDF1 mouse assessed as average weight gain at 6.4 mg/kg, ip qd for 1 to 5 days. In kind it is organism-based. The arrangement: dose 6.4 mg/kg, route intraperitoneal. As to conditions: in vivo.
Series [12] concerns L1210. The series is described as follows: Antitumor activity against mouse L1210 cells implanted in CDF1 mouse assessed as median survival time at 6.4 mg/kg, ip qd for 1 to 5 days. It is filed as functional. As to conditions: route intraperitoneal.
Series [13] concerns L1210. The experiment in a line: Antitumor activity against mouse L1210 cells implanted in CDF1 mouse assessed as median survival time at 0.4 mg/kg, ip single dose on day 1. As to conditions: route intraperitoneal. It is filed as functional.
The test system of series [14] is L1210. The series is described as follows: Antitumor activity against mouse L1210 cells implanted in CDF1 mouse assessed as median survival time at 0.2 mg/kg, ip qd for 1 to 5 days. It is filed as functional. Particulars: route intraperitoneal.
In series [15] the test system is L1210. The experiment in a line: Antitumor activity against mouse L1210 cells implanted in CDF1 mouse at 3.2 mg/kg, ip single dose on day 1 relative to control. It is filed as functional. Particulars: route intraperitoneal.

As for `CC[C@@]1(O)C[C@H](O[C@H]2C[C@H](NC)[C@H](O[C@H]3C[C@H](O)[C@H](O)[C@H](C)O3)[C@H](C)O2)c2c(cc3c(c2O)C(=O)c2c(O)ccc(O)c2C3=O)[C@H]1C(=O)OC` [SCHAUNARDIMYCIN], the T/C in [1] amounted to 100%; in [4], 100%; in series [6] it was 133%; in [7], 117%; in series [15] it was 117%. The weight gain in [2] is 2.5 g; in series [3], 2.6 g; in [8] it was 2.7 g; in series [10] it was 3.5 g. Moreover, the MST amounted to 7 days in [5]; 7 days in series [9]; 8 days in series [12]; 6 days in [13]; 7 days in series [14]. Besides, in [11], the Activity was 1.6 g.

A word on the T/C: it is the ratio of treated to control.

These data come from ChEMBL document CHEMBL1148995, “Antitumor agents from bohemic acid complex, VI. Schaunardimycin” (J Nat Prod, 1984).
